# Reference: the supplement of paper PMC11208160
# Test: recombinant barcode read abundance after kanamycin selection (control-corrected) (log10(CPM+1)); higher = more efficient recombination; sequences stand for … in AGTGCAGAGAAAATCGGCCAGTTTTCTCTGCCTGCAGTCCGCATGCCGT…AGATTTATGCAGCGGACTGCCTTTCTCCCAAAGTGATAAACCGGACAGTATCATGGACCGGTTTTCCCGGTAATCCGTATTTGCAAGGTTGGTTTCACT; site = the 11-nt target
# Procedure, shortened: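 Targets and IS621 bridge RNA target-binding loops were paired in oligos, each with a promoter, a barcode and the J23119-driven first 104 bridge RNA bases. A vector carrying the remaining 73 bp and a T7-inducible recombinase received these by Gibson cloning, and the pool was co-electroporated into E. coli with a donor plasmid. Duplicate plates contained chloramphenicol/ampicillin LB agar (control) or chloramphenicol/ampicillin/kanamycin with 0.1 mM IPTG. Recombination efficiency comes from averaged, control-corrected counts per million of recombinant-junction barcodes, reported as log10(CPM+1).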
# 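Also: IS621 recombinase and bridge RNA in Escherichia coli cells.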
row,Sequence,recombinant barcode read abundance (log10)
1,TATGTAGCTTGGGTTCTAACCTGTTGCCT (site TATGTAGCTGG),0.103
2,TATGTAGCTTGGGTTCTAACCTGTTGCCT (site TATGTAGCTTG),0.129
3,TATTAACCTTGGGTTCTAACCTGTTGCCT (site TATTAACCTAG),0.329
4,TATTAACCTTGGGTTCTAACCTGTTGCCT (site TATTACCCTAG),0.117
5,TATTAACCTTGGGTTCTAACCTGTTGCCT (site TATTAGCCTAG),0.0897
6,TATTAACCTTGGGTTCTAACCTGTTGCCT (site TATTATCCTAG),0.0539
7,TATTAGCCTTGGGTTCTAACCTGTTGCCT (site TATTAACCTAG),0.138
8,TATTAGCCTTGGGTTCTAACCTGTTGCCT (site TATTACCCTAG),0.283
9,TATTAGCCTTGGGTTCTAACCTGTTGCCT (site TATTAGCCTAG),0.123
10,TATTAGCCTTGGGTTCTAACCTGTTGCCT (site TATTATCCTAG),0.27
11,TATTATCCTTGGGTTCTAACCTGTTGCCT (site TATTAACCTAG),0.341
12,TATTATCCTTGGGTTCTAACCTGTTGCCT (site TATTACCCTAG),0.0929
13,TATTATCCTTGGGTTCTAACCTGTTGCCT (site TATTAGCCTAG),0.121
14,TATTATCCTTGGGTTCTAACCTGTTGCCT (site TATTATCCTAG),0.0487
15,TATTCTACTTGGGTTCTAACCTGTTGCGA (site TATTCTACTAC),0.0359
16,TATTCTACTTGGGTTCTAACCTGTTGCGA (site TATTCTACTCC),0.0347
17,TATTCTACTTGGGTTCTAACCTGTTGCGA (site TATTCTACTGC),0.165
18,TATTCTACTTGGGTTCTAACCTGTTGCGA (site TATTCTACTTC),0.0707
19,TATTCTCCTTGGGTTCTAACCTGTTGCAT (site TATTCTCCTAA),0.0409
20,TATTCTCCTTGGGTTCTAACCTGTTGCAT (site TATTCTCCTAC),0.235
21,TATTCTCCTTGGGTTCTAACCTGTTGCAT (site TATTCTCCTAG),0.00827
22,TATTCTCCTTGGGTTCTAACCTGTTGCAT (site TATTCTCCTAT),0.186
23,TATTGGACTTGGGTTCTAACCTGTTGCAA (site TATTGGACTAT),0.218
24,TATTGGACTTGGGTTCTAACCTGTTGCAA (site TATTGGACTCT),0.017
25,TATTGGACTTGGGTTCTAACCTGTTGCAA (site TATTGGACTGT),0.0217
26,TATTGGACTTGGGTTCTAACCTGTTGCAA (site TATTGGACTTT),0.303

row,Sequence,recombinant barcode read abundance (log10)
1,TATTGTCCTTGGGTTCTAACCTGTTGCCT (site TATAGTACTAG),0.0216
2,TATTGTCCTTGGGTTCTAACCTGTTGCCT (site TATTGTCCTAG),0.124
3,TATTTGTCTTGGGTTCTAACCTGTTGCTA (site TAGTCGTCTTA),0.148
4,TATTTGTCTTGGGTTCTAACCTGTTGCTA (site TATTTGTCTTA),0.486
5,TCAAAGGCTTGGGTTCTAACCTGTTGCCT (site TCAAAGGCTAG),0.0805
6,TCAAAGGCTTGGGTTCTAACCTGTTGCCT (site TCCAAGGCTAG),0.238
7,TCAAAGGCTTGGGTTCTAACCTGTTGCCT (site TCGAAGGCTAG),0.13
8,TCAAAGGCTTGGGTTCTAACCTGTTGCCT (site TCTAAGGCTAG),0.0999
9,TCAAATTCTTGGGTTCTAACCTGTTGCCT (site TCAAATTCTAG),0.0401
10,TCAAATTCTTGGGTTCTAACCTGTTGCCT (site TCACATTCTAG),0.0721
11,TCAAATTCTTGGGTTCTAACCTGTTGCCT (site TCAGATTCTAG),0.108
12,TCAAATTCTTGGGTTCTAACCTGTTGCCT (site TCATATTCTAG),0.0151
13,TCACAGACTTGGGTTCTAACCTGTTGCCG (site GTTAGCCCTAT),0.11
14,TCACAGACTTGGGTTCTAACCTGTTGCCG (site TCACAGACTCG),1.2
15,TCACGGTCTTGGGTTCTAACCTGTTGCCT (site TCACGGTCTAG),0.598
16,TCACGGTCTTGGGTTCTAACCTGTTGCCT (site TCTCGGTCTAG),0.0701
17,TCACGTCCTTGGGTTCTAACCTGTTGCAT (site TCACGTCCTAA),0.0411
18,TCACGTCCTTGGGTTCTAACCTGTTGCAT (site TCACGTCCTAC),0.187
19,TCACGTCCTTGGGTTCTAACCTGTTGCAT (site TCACGTCCTAG),0.745
20,TCACGTCCTTGGGTTCTAACCTGTTGCAT (site TCACGTCCTAT),0.576
21,TCACGTCCTTGGGTTCTAACCTGTTGCCT (site TCACGTCCTAA),0.403
22,TCACGTCCTTGGGTTCTAACCTGTTGCCT (site TCACGTCCTAC),0.0778
23,TCACGTCCTTGGGTTCTAACCTGTTGCCT (site TCACGTCCTAG),0.456
24,TCACGTCCTTGGGTTCTAACCTGTTGCCT (site TCACGTCCTAT),0.144
25,TCACTAGCTTGGGTTCTAACCTGTTGCCT (site TCACTAGCTAG),0.0596
26,TCACTAGCTTGGGTTCTAACCTGTTGCCT (site TTACGAGCTAG),0

row,Sequence,recombinant barcode read abundance (log10)
1,TCAGACCCTTGGGTTCTAACCTGTTGCCT (site TAAGACCCTAG),0.417
2,TCAGACCCTTGGGTTCTAACCTGTTGCCT (site TCAGACCCTAG),2.31
3,TCAGAGGCTTGGGTTCTAACCTGTTGCTG (site TCAGAGGCTCA),0.623
4,TCAGAGGCTTGGGTTCTAACCTGTTGCTG (site TCCGAGGCTCA),0.118
5,TCAGAGGCTTGGGTTCTAACCTGTTGCTG (site TCGGAGGCTCA),0.0529
6,TCAGAGGCTTGGGTTCTAACCTGTTGCTG (site TCTGAGGCTCA),0.156
7,TCAGATTCTTGGGTTCTAACCTGTTGCCT (site TCAAATTCTAG),0.0231
8,TCAGATTCTTGGGTTCTAACCTGTTGCCT (site TCACATTCTAG),0.0298
9,TCAGATTCTTGGGTTCTAACCTGTTGCCT (site TCAGATTCTAG),0.78
10,TCAGATTCTTGGGTTCTAACCTGTTGCCT (site TCATATTCTAG),0.114
11,TCAGGAGCTTGGGTTCTAACCTGTTGCGG (site TCAGGAGCTCC),2.07
12,TCAGGAGCTTGGGTTCTAACCTGTTGCGG (site TCAGGAGCTCT),1.85
13,TCAGGCCCTTGGGTTCTAACCTGTTGCCT (site TAAGGCCCTAA),0.0837
14,TCAGGCCCTTGGGTTCTAACCTGTTGCCT (site TCAGGCCCTAG),0.702
15,TCATGACCTTGGGTTCTAACCTGTTGCAT (site CTTAACACTCG),0.159
16,TCATGACCTTGGGTTCTAACCTGTTGCAT (site TCATGACCTAT),1.29
17,TCCAACACTTGGGTTCTAACCTGTTGCCG (site TCCAACACTCG),0.574
18,TCCAACACTTGGGTTCTAACCTGTTGCCG (site TCCAATACTCG),0.24
19,TCCAACCCTTGGGTTCTAACCTGTTGCCA (site GCCAACCCTTA),0.0929
20,TCCAACCCTTGGGTTCTAACCTGTTGCCA (site TCCAACCCTTG),0.715
21,TCCAAGGCTTGGGTTCTAACCTGTTGCCT (site TCAAAGGCTAG),0.0841
22,TCCAAGGCTTGGGTTCTAACCTGTTGCCT (site TCCAAGGCTAG),0.107
23,TCCAAGGCTTGGGTTCTAACCTGTTGCCT (site TCGAAGGCTAG),0.147
24,TCCAAGGCTTGGGTTCTAACCTGTTGCCT (site TCTAAGGCTAG),1.48
25,TCCACAACTTGGGTTCTAACCTGTTGCCT (site TCCACAACTAG),0.273
